Experimental data: ChEMBL document CHEMBL4308908, “Lamellarin-inspired potent topoisomerase I inhibitors with the unprecedented benzo[g][1]benzopyrano[4,3-b]indol-6(13H)-one scaffold” (Bioorg Med Chem, 2019)
Activity calls are given as the source filed them. No cut-off for these calls is given here.

Columns and labels:
[1] = target: T1, DNA topoisomerase I (Bos taurus) (UniProt F1MN93); experiment: Inhibition of calf thymus DNA topoisomerase 1 assessed as reduction in enzyme-mediated relaxation of supercoiled pBR322 plasmid DNA at 10 uM after 30 mins by agarose gel electrophoresis
T1 sequence (whole entry): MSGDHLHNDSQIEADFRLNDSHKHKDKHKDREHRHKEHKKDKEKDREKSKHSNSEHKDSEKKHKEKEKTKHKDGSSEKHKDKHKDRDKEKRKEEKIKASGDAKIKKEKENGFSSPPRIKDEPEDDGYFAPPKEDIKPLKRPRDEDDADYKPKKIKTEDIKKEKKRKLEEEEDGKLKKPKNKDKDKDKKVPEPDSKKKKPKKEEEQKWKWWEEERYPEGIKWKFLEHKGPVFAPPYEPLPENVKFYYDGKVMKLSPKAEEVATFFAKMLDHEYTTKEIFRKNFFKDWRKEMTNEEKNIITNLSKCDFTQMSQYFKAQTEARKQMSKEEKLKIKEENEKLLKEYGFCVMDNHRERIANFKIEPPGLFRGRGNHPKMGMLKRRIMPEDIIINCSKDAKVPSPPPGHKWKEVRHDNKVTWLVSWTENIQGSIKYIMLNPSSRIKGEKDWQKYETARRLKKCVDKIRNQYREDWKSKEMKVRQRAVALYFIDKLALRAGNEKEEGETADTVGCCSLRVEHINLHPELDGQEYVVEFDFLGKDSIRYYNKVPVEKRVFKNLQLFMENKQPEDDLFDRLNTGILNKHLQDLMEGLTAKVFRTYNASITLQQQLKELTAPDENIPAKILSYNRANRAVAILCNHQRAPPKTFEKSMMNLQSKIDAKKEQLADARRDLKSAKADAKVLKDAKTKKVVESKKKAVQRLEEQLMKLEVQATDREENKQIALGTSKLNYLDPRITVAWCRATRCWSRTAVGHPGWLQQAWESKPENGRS

[2] = target: T1, DNA topoisomerase I (Bos taurus); experiment: Inhibition of calf thymus DNA topoisomerase 1 assessed as reduction in enzyme-mediated relaxation of supercoiled pBR322 plasmid DNA at 10 uM after 30 mins by ethidium bromide staining-based agarose gel electrophoresis
[3] = Antiproliferative activity against human HBC4 cells after 48 hrs by SRB assay; type: functional; conditions: HBC4, 48 h
[4] = Antiproliferative activity against human BSY1 cells after 48 hrs by SRB assay; type: functional; conditions: BSY-1, 48 h
[5] = Antiproliferative activity against human HBC5 cells after 48 hrs by SRB assay; type: functional; conditions: HBC5, 48 h
MCF7 = experiment: Antiproliferative activity against human MCF7 cells after 48 hrs by SRB assay; type: functional; conditions: MCF7, 48 h
MDA-MB-231 = experiment: Antiproliferative activity against human MDA-MB-231 cells after 48 hrs by SRB assay; type: functional; conditions: MDA-MB-231, 48 h
U-251 = experiment: Antiproliferative activity against human U251 cells after 48 hrs by SRB assay; type: functional; conditions: U-251, 48 h
SF-268 = experiment: Antiproliferative activity against human SF268 cells after 48 hrs by SRB assay; type: functional; conditions: SF-268, 48 h
SF-295 = experiment: Antiproliferative activity against human SF295 cells after 48 hrs by SRB assay; type: functional; conditions: SF-295, 48 h
SNB-78 = experiment: Antiproliferative activity against human SNB78 cells after 48 hrs by SRB assay; type: functional; conditions: SNB-78, 48 h
HCC 2998 = experiment: Antiproliferative activity against human HCC2998 cells after 48 hrs by SRB assay; type: functional; conditions: HCC 2998, 48 h
HT-29 = experiment: Antiproliferative activity against human HT-29 cells after 48 hrs by SRB assay; type: functional; conditions: HT-29, 48 h
HCT-15 = experiment: Antiproliferative activity against human HCT15 cells after 48 hrs by SRB assay; type: functional; conditions: HCT-15, 48 h
HCT-116 = experiment: Antiproliferative activity against human HCT116 cells after 48 hrs by SRB assay; type: functional; conditions: HCT-116, 48 h
NCI-H23 = experiment: Antiproliferative activity against human NCI-H23 cells after 48 hrs by SRB assay; type: functional; conditions: NCI-H23, 48 h
NCI-H226 = experiment: Antiproliferative activity against human NCI-H226 cells after 48 hrs by SRB assay; type: functional; conditions: NCI-H226, 48 h
NCI-H522 = experiment: Antiproliferative activity against human NCI-H522 cells after 48 hrs by SRB assay; type: functional; conditions: NCI-H522, 48 h
NCI-H460 = experiment: Antiproliferative activity against human NCI-H460 cells after 48 hrs by SRB assay; type: functional; conditions: NCI-H460, 48 h
A549 = experiment: Antiproliferative activity against human A549 cells after 48 hrs by SRB assay; type: functional; conditions: A549, 48 h
DMS-273 = experiment: Antiproliferative activity against human DMS273 cells after 48 hrs by SRB assay; type: functional; conditions: DMS-273, 48 h
DMS-114 = experiment: Antiproliferative activity against human DMS114 cells after 48 hrs by SRB assay; type: functional; conditions: DMS-114, 48 h
OVCAR-4 = experiment: Antiproliferative activity against human OVCAR4 cells after 48 hrs by SRB assay; type: functional; conditions: OVCAR-4, 48 h
OVCAR-5 = experiment: Antiproliferative activity against human OVCAR5 cells after 48 hrs by SRB assay; type: functional; conditions: OVCAR-5, 48 h
OVCAR-8 = experiment: Antiproliferative activity against human OVCAR8 cells after 48 hrs by SRB assay; type: functional; conditions: OVCAR-8, 48 h
SK-OV-3 = experiment: Antiproliferative activity against human SKOV3 cells after 48 hrs by SRB assay; type: functional; conditions: SK-OV-3, 48 h
RXF 631 = experiment: Antiproliferative activity against human RXF631L cells after 48 hrs by SRB assay; type: functional; conditions: RXF 631, 48 h
ACHN = experiment: Antiproliferative activity against human ACHN cells after 48 hrs by SRB assay; type: functional
St-4 = experiment: Antiproliferative activity against human St-4 cells after 48 hrs by SRB assay; type: functional; conditions: St-4, 48 h
MKN-1 = experiment: Antiproliferative activity against human MKN1 cells after 48 hrs by SRB assay; type: functional; conditions: MKN-1, 48 h
MKN-7 = experiment: Antiproliferative activity against human MKN7 cells after 48 hrs by SRB assay; type: functional; conditions: MKN-7, 48 h
MKN-45 = experiment: Antiproliferative activity against human MKN45 cells after 48 hrs by SRB assay; type: functional; conditions: MKN-45, 48 h
MKN-74 = experiment: Antiproliferative activity against human MKN74 cells after 48 hrs by SRB assay; type: functional; conditions: MKN-74, 48 h
Colon 26 = experiment: Antitumor activity against mouse Colon 26 cells implanted in BALB/c mouse at 50 mg/kg, iv administered every 2 days for 7 times starting 1 day after tumor implantation and measured daily until day 20; type: functional, organism-based

In the case of COc1cc2c(ccc3c4c(=O)oc5cc(OC(=O)[C@@H](N)C(C)C)c(OC)cc5c4n(C)c23)cc1OC(=O)[C@@H](N)C(C)C.O=C(O)C(F)(F)F.O=C(O)C(F)(F)F, the inhibition [1] is reported as “Active”, the inhibition [2] is reported as “Active” and the GI50 [3] is reported as 10 nM. The GI50 [4] was 38 nM, the GI50 [5] was 138 nM and the GI50 (MCF7; read-out: GI50) was 6.1 nM. It also gave a GI50 (MCF7; read-out: pGI50 (converted)) of 6.17 nM, a GI50 (MDA-MB-231) of 148 nM and a GI50 (U-251; read-out: GI50) of 3.4 nM. For the same compound, the GI50 (U-251; read-out: pGI50 (converted)) was 3.39 nM, the GI50 (SF-268) was 8.32 nM and the GI50 (SF-295) was 12.9 nM. The GI50 (SNB-78) was 282 nM, the GI50 (HCC 2998) was 91.2 nM and the GI50 (HT-29) was 955 nM. It also gave a GI50 (HCT-15) of 58.9 nM, a GI50 (HCT-116; read-out: GI50) of 15 nM and a GI50 (HCT-116; read-out: pGI50 (converted)) of 15.5 nM. The GI50 (NCI-H23) was 4.9 nM, the GI50 (NCI-H226) was 89.1 nM and the GI50 (NCI-H522; read-out: GI50) was 3.4 nM. The GI50 (NCI-H522; read-out: pGI50 (converted)) was 3.47 nM, the GI50 (NCI-H460) was 4.37 nM and the GI50 (A549) was 52.5 nM. The GI50 (DMS-273) was 4.27 nM, the GI50 (DMS-114) was 4.37 nM and the GI50 (OVCAR-4) was 36.3 nM. The GI50 (OVCAR-5) was 45.7 nM, the GI50 (OVCAR-8) was 13.5 nM and the GI50 (SK-OV-3; read-out: GI50) was 20 nM. It also gave a GI50 (SK-OV-3; read-out: pGI50 (converted)) of 19.9 nM, a GI50 (RXF 631) of 1000 nM and a GI50 (ACHN; read-out: GI50) of 2.9 nM. For the same compound, the GI50 (ACHN; read-out: pGI50 (converted)) was 2.88 nM, the GI50 (St-4) was 1000 nM and the GI50 (MKN-1) was 44.7 nM. It also gave a GI50 (MKN-7) of 52.5 nM, a GI50 (MKN-45) of 105 nM and a GI50 (MKN-74) of 75.9 nM. For the same compound, the Activity (Colon 26) was “Active”.
